Test results reported in patent publication EP0730589B1, “ISOXAZOLINE COMPOUNDS USEFUL AS […] ANTAGONISTS” (THE DU PONT MERCK PHARMACEUTICAL COMPANY, priority 1993, dated 1995).

Tested on: platelet aggregation
Assay: Platelet aggregation assay (platelet rich plasma, PRP)
Type: cell-based
Conditions: inhibition of agonist-induced aggregation in human platelet rich plasma (PRP); ester prodrugs preincubated with porcine liver esterase, ADP-induced
Protocol: Platelet Aggregation Assay: Venous blood was obtained from the arm of a healthy human donor who was drug-free and aspirin-free for at least two weeks prior to blood collection. Blood was collected into 10 mL citrated vacutainer tubes. The blood was centrifuged for 15 minutes at 150 x g at room temperature, and platelet-rich plasma (PRP) was removed. The remaining blood was centrifuged for 15 minutes at 1500 x g at room temperature, and platelet-poor plasma (PPP) was removed. Samples were assayed on a aggregometer (PAP-4 Platelet Aggregation Profiler), using PPP as the blank (100% transmittance). 200 µL of PRP was added to each micro test tube, and transmittance was set to 0%. 20 µL of various agonists (ADP, collagen, arachidonate, epinephrine, thrombin) were added to each tube, and the aggregation profiles were plotted (% transmittance versus time). The results are expressed as % inhibition of agonist-induced platelet aggregation. For the IC50 evaluation, the test compounds were added at various concentrations prior to the activation of the platelets.
Ester prodrugs were preincubated (10^-3 M F.C.) with 100 IU/ml Porcine liver esterase (Sigma Chemical Co., St. Louis, MO, #E-3128) for 2 hours at 37 °C. Aliquots are then diluted in 0.1 M Tris, pH 7.4, to the desired concentrations. Aliquots of 20 µl of the esterase pretreated prodrugs are added to 200 µl of human platelet rich plasma. Samples were placed in platelet profiler (aggregometer) for 8 minutes at 37 °C, followed by the addition of 100 µM adenosine diphosphate (Sigma Chemical Co., St. Louis, MO, #A-6521), to induce platelet aggregation. Platelet aggregation was allowed to proceed for 5 minutes. Percent inhibition is calculated using percent aggregation in the presence of the test compound divided by percent aggregation of control, times 100. This value is subtracted from 100, yielding percent inhibition. Calculation of IC50 is performed on a Texas Instruments TI59 with an IC50 program.
Table 2 below sets forth the biological activity of representative compounds of the present invention. The indicated compounds were tested for their ability to inhibit platelet aggregation (using platelet rich plasma (PRP)). The IC50 value (the concentration of antagonist which inhibits platelet aggregation by 50% relative to a control lacking the antagonist) is shown. In Table 5 the IC50 values are expressed as: +++ = IC50 of <10 µM; ++ = ICso of 10-50 µM; + = IC50 of 50-100 µM (µM = micromolar).

| Compound | IC50 |
| --- | --- |
| N=C(N)c1ccc(C2=NOC(CC(=O)NCCC(=O)O)C2)cc1 (racemic) [Example 1, 5(R,S)-3-[3-(4-Amidinophenyl)isoxazolin-5-ylacetyl]aminopropanoic Acid] | < 10 µM |
| CNC(=N)c1ccc(C2=NOC(CC(=O)NCCC(=O)O)C2)cc1 (racemic) [Example 21] | < 10 µM |
| CCCNC(=N)c1ccc(C2=NOC(CC(=O)NCCC(=O)O)C2)cc1 (racemic) [Example 25] | < 10 µM |
| CCCCNC(=N)c1ccc(C2=NOC(CC(=O)NCCC(=O)OCC)C2)cc1 (racemic) [Example 26, Ethyl 5(R,S)-3-[3-(4-N-n-Butylamidinophenyl)isoxazolin-5-ylacetyl]aminopropanoate] | < 10 µM |
| CCCCNC(=N)c1ccc(C2=NOC(CC(=O)NCCC(=O)O)C2)cc1 (racemic) [Example 27] | < 10 µM |
| CCCCCNC(=N)c1ccc(C2=NOC(CC(=O)NCCC(=O)OCC)C2)cc1 (racemic) [Example 29] | < 10 µM |
| CCOC(=O)CCNC(=O)CC1CC(c2ccc(C(=N)NCCC(C)C)cc2)=NO1 (racemic) [Example 31] | < 10 µM |
| CCCCCNC(=N)c1ccc(C2=NOC(CC(=O)NCCC(=O)O)C2)cc1 (stereo not drawn) [Example 28] | < 10 µM |
| COC(=O)CCNC(=O)CC1CC(c2ccc(C(=N)NCc3ccccc3)cc2)=NO1 (stereo not drawn) [Example 32] | < 10 µM |
